Data from patent US10898609B2, “Tissue decellularization methods” (priority 2015, dated 2021).

Legend:
Assay type in all cases: cell-based, Sprague Dawley rats
peripheral nerve [1] = assay: Total DNA content of decellularized peripheral nerve, Picogreen DNA assay; conditions: 1 day
Method: Peripheral nerves were harvested from Sprague Dawley rats and decellularized according to an apoptosis-assisted protocol using 5 μM camptothecin in non-supplemented media at 37° C. for 1 day. Tissue in media without camptothecin, an apoptotic agent, was used as a control. Apoptotic agent treatment was succeeded by washes in saline buffered solutions to optimize cell removal. Furthermore, the tissue was treated with 75 u/mL DNAse for 24 hours to ensure DNA removal. The degree of apoptosis, cellular removal, and matrix preservation was assessed using immunochemistry on nerve tissue sections and fluorescence imaging (FIG. 2). Antibodies used to identify apoptosis, cell removal, and tissue preservation include those against active caspase 3 (Abcam); neurofilament (RT-97, DSHB) and S100 (Dako); and laminin (Sigma), respectively. […] FIGS. 2B and 2C show nerves treated with 5 μM for 1 day, washed with a hypertonic, and either washed with a hypertonic solution or treated for 24 hours with DNAse, respectively. […] FIGS. 2E and 2F show treatment with higher camptothecin (10 μM), again for 1 day, and washed similarly to tissue in FIGS. 2B and 2C. These images depict 1) apoptosis induction is necessary prior to washing to effectively remove cellular components and 2) combing apoptosis induction with washes in non-isotonic solutions achieves cellular removal of peripheral nerve tissue. Total DNA content was quantified using a Picogreen DNA assay (Life Technologies) according to manufacturer's instructions.

active caspase 3 = assay: Immunochemistry for active caspase 3 on nerve tissue sections; conditions: 10 μM camptothecin, 2 days, 37° C., ex vivo nerve; vs media control
Method: (§1) Peripheral nerves were harvested from Sprague Dawley rats and decellularized according to an apoptosis-assisted protocol using 10 μM camptothecin in non-supplemented media at 37° C. for 2 days. Tissue in media without camptothecin was used as a control. Apoptotic agent treatment was succeeded by washes in saline buffered solutions to optimize cell removal. The degree of apoptosis, cellular removal, and matrix preservation was assessed using immunochemistry on nerve tissue sections and fluorescence imaging. Antibodies used to identify apoptosis, cell removal, and tissue preservation include those against active caspase 3 (Abcam); neurofilament (RT-97, DSHB) and S100 (Dako); and laminin (Sigma), respectively. […] Total DNA content was quantified using a Picogreen DNA assay (Life Technologies) according to manufacturer's instructions.

peripheral nerve [2] = assay: TUNEL assay of apoptosis-mediated DNA fragmentation in nerve tissue; conditions: 10 μM camptothecin, 2 days, 37° C., ex vivo nerve; vs media control
Method: as §1

## CC[C@@]1(O)C(=O)OCc2c1cc1n(c2=O)Cc2cc3ccccc3nc2-1 [camptothecin]
Peripheral nerve [1]; 5 μM camptothecin, 37° C., hypertonic and hypotonic washes
  reduction in DNA content compared to fresh nerve: 71.9%
Peripheral nerve [1]; 5 μM camptothecin, hypotonic wash replaced with DNAse treatment (75 u/mL, 24 hours)
  reduction in DNA content compared to fresh nerve: 95.1%
Peripheral nerve [1]; 10 μM camptothecin, hypertonic and hypotonic washes
  reduction in DNA content compared to fresh nerve: 57.3%
Peripheral nerve [1]; 10 μM camptothecin, hypotonic wash replaced with DNAse treatment (75 u/mL, 24 hours)
  reduction in DNA content compared to fresh nerve: 95.8%
Active caspase 3
  active caspase 3 (early mediator of apoptosis): caspase 3 activation
Peripheral nerve [2]
  DNA fragmentation (TUNEL staining): DNA fragmentation
